Test results from patent publication US20060252766A1, “Methods using a combination of 3-heteroaryl-2-indolinone and a cyclooxygenase-2 inhibitor for the treatment of neoplasia” (PFIZER INC, priority 2002, published 2006).

What was measured:
FLK-1 receptor = molecular target: T1, FLK-1 receptor (Mus musculus, UniProt P35918); test: FLK-1 ELISA in FLK-1/NIH3T3 cells; format: cell-based
T1 construct: expressed in transfected cells; host or cells: NIH3T3 C7#3 cells
Method: An ELISA assay was conducted to measure the kinase activity of the FLK-1 receptor and more specifically, the inhibition or activation of protein tyrosine kinase activity on the FLK-1 receptor. Specifically, the following assay was conducted to measure kinase activity of the FLK-1 receptor in FLK-1/NIH3T3 cells.
Coat Corning 96-well elisa plates with 1.0 μg per well Cappel Anti-rabbit IgG antibody in 0.1M Na2 CO3 pH 9.6. Bring final volume to 150 μl per well. Coat plates overnight at 4° C. Plates can be kept up to two weeks when stored at 4° C. • 2. Grow cells in Growth media(DMEM, supplemental with 2.0 mM L-Glutamine, 10% FBS) in suitable culture dishes until confluent at 37° C., 5% CO2. • 3. […] Grow cells at least one day at 37° C., 5% CO2. • 5. Wash cells with D-PBS 1×. • 6. Add 200 μl/well of starvation media (DMEM, 2.0 mM I-Glutamine, 0.1% FBS). Incubate overnight at 37° C., 5% CO2. • 7. Dilute Compounds/Extracts 1:20 in polypropylene 96 well plates using starvation media. Dilute dimethylsulfoxide 1:20 for use in control wells. • 8. Remove starvation media from 96 well cell culture plates and add 162 μl of fresh starvation media to each well. • 9. Add 18 μl of 1:20 diluted Compound/Extract dilution (from step 7) to each well plus the 1:20 dimethylsulfoxide dilution to the control wells (+/−VEGF), for a final dilution of 1:200 after cell stimulation. Final dimethylsulfoxide is 0.5%. […]

3T3/E/H+TGF-a(T) cells = test: 3T3/E/H+TGF-a(T) cell growth SRB assay; format: cell-based; details: SRB readout
HUV-EC-C cells (a-FGF) = test: HUV-EC-C assay, [3H] thymidine incorporation, a-FGF; format: cell-based, human; details: Mitogenesis in endothelial cells
Method: The following protocol may also be used to measure the composition's activity: • Day 0 • 1. […] After cells have detached from the flask, add an equal volume of assay medium and transfer to a 50 ml sterile centrifuge tube (Fisher Scientific; catalogue no. 05-539-6). • 2. Wash the cells with about 35 ml assay medium in the 50 ml sterile centrifuge tube by adding the assay medium, centrifuge for 10 minutes at approximately 200×g, aspirate the supernatant, and resuspend with 35 ml D-PBS. Repeat the wash two more times with D-PBS, resuspend the cells in about 1 ml assay medium/15 cm^2 of tissue culture flask. Assay medium consists of F12K medium (Gibco BRL; catalogue no. 21127-014)+0.5% heat-inactivated fetal bovine serum. Count the cells with a Coulter Counter.RTM.v Coulter Electronics, Inc.) and add assay medium to the cells to obtain a concentration of 0.8-1.0×10^5 cells/ml. • 3. Add cells to 96-well flat-bottom plates at 100 μl/well or 0.8-1.0×10^4 cells/well; incubate about 24 h at 37° C., 5% CO2. Day 1 • 1. Make up two-fold drug titrations in separate 96-well plates, generally 50 μM on down to 0 μM. Use the same assay medium as mentioned in day 0, step 2 above. Titrations are made by adding […] of drug at 200 μM (4× the final well concentration) to the top well of a particular plate column. Since the stock drug concentration is usually 20 mM in DMSO, the 200 μM drug concentration contains 2% DMSO. Therefore, diluent made up to 2% DMSO in assay medium (F12K+0.5% fetal bovine serum) is used as diluent for the drug titrations in order to dilute the drug but keep the DMSO concentration constant. Add this diluent to the remaining wells in the column at 60 μl/well. Take 60 μl from the 120 μl of 200 μM drug dilution in the top well of the column and mix with the 60 μl in the second well of the column. Take 60 μl from this well and mix with the 60 μl in the third well of the column, and so on until two-fold titrations are completed. When the next-to-the-last well is mixed, take 60 μl of the 120 μl in this well and discard it. Leave the last well with 60 μl of DMSO/media diluent as a non-drug-containing control. Make 9 columns of titrated drug, enough for triplicate wells each for 1) VEGF (obtained from Pepro Tech Inc., catalogue no. 100-200, 2) endothelial cell growth factor (ECGF) (also known as acidic fibroblast growth factor, or aFGF) (obtained from Boehringer Mannheim Biochemica, catalogue no. 1439 600), and assay media control. ECGF comes as a preparation with sodium heparin. • 2. Transfer 50 μl/well of the drug dilutions to the 96-well assay plates containing the 0.8-1.0×10^4 cells/100 μl/well of the HUV-EC-C cells from day 0 and […] incubate ~2 h at 37° C., 5% CO2. • 3. In triplicate, add 50 μl/well of 80 ng/ml VEGF, 20 ng/ml ECGF, or media control to each drug condition. As with the drugs, the growth factor concentrations are 4× the desired final concentration. Use the assay media from day 0 step 2 to make the concentrations of growth factors. Incubate approximately 24 hours at 37° C., 5% CO2. Each well will have 50 μl drug dilution, 50 μl growth factor or media, and 100 ul cells,=200 ul/well total. Thus the 4× concentrations of drugs and growth factors become 1× once everything has been added to the wells. Day 2 • 1. Add ^3H-thymidine (Amersham; catalogue no. TRK-686) at 1 μCi/well (10 μl/well of 100 μCi/ml solution made up in RPMI media+10% heat-inactivated fetal bovine serum) and incubate about 24 h at 37° C., 5% CO2. • Note: ^3H-thymidine is made up in RPMI media because all of the other applications for which we use the ^3H-thymidine involve experiments done in RPMI. The media difference at this step is probably not significant. RPMI was obtained from Gibco BRL, catalogue no. 11875-051. Day 3 • 1. Freeze plates overnight at −20° C. Day 4 • 1. […]

HUV-EC-C cells (VEGF) = test: HUV-EC-C assay, [3H] thymidine incorporation, VEGF; format: cell-based, human; details: Mitogenesis in endothelial cells
Method: Repeat the wash two more times with D-PBS, resuspend the cells in about 1 ml assay medium/15 cm^2 of tissue culture flask. […] Add cells to 96-well flat-bottom plates at 100 μl/well or 0.8-1.0×10^4 cells/well; incubate about 24 h at 37° C., 5% CO2. Day 1 • 1. […] Use the same assay medium as mentioned in day 0, step 2 above. Titrations are made by adding 90 μl/well of drug at 200 μM (4× the final well concentration) to the top well of a particular plate column. Since the stock drug concentration is usually 20 mM in DMSO, the 200 μM drug concentration contains 2% DMSO. Therefore, diluent made up to 2% DMSO in assay medium (F12K+0.5% fetal bovine serum) is used as diluent for the drug titrations in order to dilute the drug but keep the DMSO concentration constant. Add this diluent to the remaining wells in the column at 60 μl/well. Take 60 μl from the 120 μl of 200 μM drug dilution in the top well of the column and mix with the 60 μl in the second well of the column. Take 60 μl from this well and mix with the 60 μl in the third well of the column, and so on until two-fold titrations are completed. When the next-to-the-last well is mixed, take 60 μl of the 120 μl in this well and discard it. Leave the last well with 60 μl of DMSO/media diluent as a non-drug-containing control. Make 9 columns of titrated drug, enough for triplicate wells each for 1) VEGF (obtained from Pepro Tech Inc., catalogue no. 100-200, 2) endothelial cell growth factor (ECGF) (also known as acidic fibroblast growth factor, or aFGF) (obtained from Boehringer Mannheim Biochemica, catalogue no. […] ECGF comes as a preparation with sodium heparin. • 2. Transfer 50 μl/well of the drug dilutions to the 96-well assay plates containing the 0.8-1.0×10^4 cells/100 μl/well of the HUV-EC-C cells from day 0 and 20 incubate ~2 h at 37° C., 5% CO2. • 3. In triplicate, add 50 μl/well of 80 ng/ml VEGF, 20 ng/ml ECGF, or media control to each drug condition. As with the drugs, the growth factor concentrations are 4× the desired final concentration. Use the assay media from day 0 step 2 to make the concentrations of growth factors. […] Day 2 • 1. […] Day 3 • 1.

PDGFR [1] = molecular target: PDGFR (Homo sapiens, UniProt P09619); test: PDGF-R ELISA
Method: All cell culture media, glutamine, and fetal bovine serum were purchased from Gibco Life Technologies (Grand Island, N.Y.) unless otherwise specified. […] All cell lines were routinely subcultured twice a week and were negative for mycoplasma as determined by the Mycotect method (Gibco).
For ELISA assays, cells (U1242, obtained from Joseph Schlessinger, NYU) were grown to 80-90% confluency in growth medium (MEM with 10% FBS, NEAA, 1 mM NaPyr and 2 mM GLN) and seeded in 96-well tissue culture plates in 0.5% serum at 25,000 to 30,000 cells per well. […] Lysates were incubated with shaking for 1 hour at room temperature. The plates were washed with TBST four times and then incubated with polyclonal anti-phosphotyrosine antibody at room temperature for 30 minutes. Excess anti-phosphotyrosine antibody was removed by rinsing the plate with TBST four times. Goat anti-rabbit IgG antibody was added to the ELISA plate for 30 min at room temperature followed by rinsing with TBST four more times. […] Absorbance at 410 nm with a reference wavelength of 630 nm was recorded about 15 to 30 min after ABTS addition.

PDGFR [2] = test: PDGF-induced BrdU incorporation assay in 3T3/EGFR cells; format: cell-based; details: Mitogenesis in 3T3/EGFR cells, read-out: PDGFR PDGF Ligand IC50
Method: Protocol • (1) 3T3 engineered cell line: 3T3/EGFRc7. • (2) Cells are seeded at 8000 cells/well in DMEM, 10% CS, 2 mM Gin in a 96 well plate. […] The negative control wells receive serum free DMEM with 0.1% BSA only; the positive control cells receive the ligand (PDGF) but no test compound. […] FixDenat solution is added (50 μl/well) and the plates are incubated at room temperature for 45 minutes on a plate shaker. • (7) The FixDenat solution is thoroughly removed by decanting and tapping the inverted plate on a paper towel. Milk is added (5% dehydrated milk in PBS, 200 μl/well) as a blocking solution and the plate is incubated for 30 minutes at room temperature on a plate shaker. • (8) The blocking solution is removed by decanting and the wells are washed once with PBS. Anti-BrdU-POD solution (1:100 dilution in PBS, 1% BSA) is added (100 μl/well) and the plate is incubated for 90 minutes at room temperature on a plate shaker. • (9) The antibody conjugate is thoroughly removed by decanting and rinsing the wells 5 times with PBS, and the plate is dried by inverting and tapping on a paper towel. • (10) TMB substrate solution is added (100 μl/well) and incubated for 20 minutes at room temperature on a plate shaker until color development is sufficient for photometric detection. • (11) The absorbance of the samples is measured at 410 nm (in “dual wavelength” mode with a filter reading at 490 nm, as a reference wavelength) on a Dynatech ELISA plate reader.

FGFR = FGFR (Mus musculus, UniProt P16092); test: FGF ligand BrdU incorporation in 3T3/EGFR cells; format: cell-based; details: Mitogenesis in 3T3/EGFR cells
3T3/PDGFR+PDGF(T) cells = test: 3T3/PDGF-βR/PDGF-BB(T) cell growth SRB assay; format: cell-based; details: tumor-derived, SRB readout
Method: Cell Line and Growth Medium:
• 3T3/PDGF-βR/PDGF-BB(T) (NIH 3T3 clone 7 cells expressing PDGFβ-receptor and PDGF-BB, from tumors resected from athymic mice) 2% calf serum/DMEM+2 mM glutamine Protocol: Day 0: Cell Plating: • This part of assay is carried out in a laminar flow hood. • 1. Trypsinize cells as usual. Transfer 200 μl of cell suspension to 10 ml of isotone. Count cells on the Coulter Counter. • 2. Dilute cells in growth medium to 60,000 cells/ml. Transfer 100 μl of cells to each well in a 96-well flat bottom plate to give 6000 cells/well. • 3. Allow half of plate (4 rows) for each compound and quadruplicate wells for each compound concentration, a set of 4 wells for medium control and 4 wells for DMSO control. • 4. Gently shake plates to allow for uniform attachment of the cells to the plate. • 5. Incubate the plates at 37° C. in a 10% CO2 incubator. • Day 1: Addition of Compound: same as for Assay 1. • Day 5: Development of Assay: same as for Assay 1.
3T3/E/H+TGF-α(T): NIH 3T3 cells expressing EGFR/HER2 chimera and TGF-α, tumor-derived 3T3/EGFR+TGF-α(T): NIH 3T3 cells expressing EGFR and TGF-α, tumor-derived 3T3/PDGFR+PDGF(T): NIH 3T3 cells expressing PDGF-βR and PDGF-ββ, tumor-derived SMC: human smooth muscle cells from Clonetics

Sequence of FGFR (P16092 22-822, change not shown): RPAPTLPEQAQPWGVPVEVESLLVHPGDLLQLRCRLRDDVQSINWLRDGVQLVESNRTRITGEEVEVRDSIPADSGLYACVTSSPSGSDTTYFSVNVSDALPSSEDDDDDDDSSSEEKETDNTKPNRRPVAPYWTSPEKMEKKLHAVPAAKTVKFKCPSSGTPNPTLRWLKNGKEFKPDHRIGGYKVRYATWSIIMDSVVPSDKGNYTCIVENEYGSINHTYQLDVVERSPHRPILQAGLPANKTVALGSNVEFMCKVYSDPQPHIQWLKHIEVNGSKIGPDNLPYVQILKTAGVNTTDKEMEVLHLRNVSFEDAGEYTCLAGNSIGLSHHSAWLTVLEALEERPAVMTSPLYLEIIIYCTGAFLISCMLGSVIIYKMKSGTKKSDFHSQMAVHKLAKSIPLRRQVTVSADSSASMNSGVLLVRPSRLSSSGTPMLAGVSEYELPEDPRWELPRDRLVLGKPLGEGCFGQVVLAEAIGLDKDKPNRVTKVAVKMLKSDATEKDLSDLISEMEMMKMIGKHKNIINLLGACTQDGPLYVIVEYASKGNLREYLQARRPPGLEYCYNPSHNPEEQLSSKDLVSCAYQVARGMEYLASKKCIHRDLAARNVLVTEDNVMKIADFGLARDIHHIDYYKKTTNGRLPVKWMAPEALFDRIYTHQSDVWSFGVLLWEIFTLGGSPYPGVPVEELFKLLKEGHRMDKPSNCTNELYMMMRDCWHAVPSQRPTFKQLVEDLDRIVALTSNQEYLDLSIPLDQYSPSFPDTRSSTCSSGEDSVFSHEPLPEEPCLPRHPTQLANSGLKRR
Sequence of PDGFR (Homo sapiens, UniProt P09619) (P09619 33-1106): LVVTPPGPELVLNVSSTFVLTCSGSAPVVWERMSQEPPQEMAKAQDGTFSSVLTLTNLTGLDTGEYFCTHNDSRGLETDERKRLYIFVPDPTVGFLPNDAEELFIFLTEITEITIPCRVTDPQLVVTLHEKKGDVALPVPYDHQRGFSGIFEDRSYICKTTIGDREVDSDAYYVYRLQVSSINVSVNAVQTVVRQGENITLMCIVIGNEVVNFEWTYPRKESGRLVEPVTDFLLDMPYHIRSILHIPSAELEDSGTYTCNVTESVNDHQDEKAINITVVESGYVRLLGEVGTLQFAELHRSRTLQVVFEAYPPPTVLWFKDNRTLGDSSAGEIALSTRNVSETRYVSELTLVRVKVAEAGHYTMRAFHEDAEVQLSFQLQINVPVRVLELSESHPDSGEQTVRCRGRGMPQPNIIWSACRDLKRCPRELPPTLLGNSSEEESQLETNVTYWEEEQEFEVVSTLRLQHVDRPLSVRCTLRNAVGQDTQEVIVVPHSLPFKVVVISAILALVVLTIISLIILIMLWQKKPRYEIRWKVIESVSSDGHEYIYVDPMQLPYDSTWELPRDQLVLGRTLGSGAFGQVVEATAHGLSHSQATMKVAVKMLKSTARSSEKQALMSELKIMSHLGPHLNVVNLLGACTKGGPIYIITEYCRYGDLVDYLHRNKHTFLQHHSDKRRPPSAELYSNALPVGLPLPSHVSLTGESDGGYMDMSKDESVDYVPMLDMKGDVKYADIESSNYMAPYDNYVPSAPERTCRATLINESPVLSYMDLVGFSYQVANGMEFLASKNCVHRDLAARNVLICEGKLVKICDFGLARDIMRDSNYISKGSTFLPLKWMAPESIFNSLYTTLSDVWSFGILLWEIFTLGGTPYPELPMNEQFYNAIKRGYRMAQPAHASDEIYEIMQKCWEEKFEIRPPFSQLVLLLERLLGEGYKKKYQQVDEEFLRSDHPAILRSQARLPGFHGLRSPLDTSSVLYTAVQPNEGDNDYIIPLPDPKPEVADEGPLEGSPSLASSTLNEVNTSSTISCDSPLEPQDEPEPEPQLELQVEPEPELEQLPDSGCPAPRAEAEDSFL
T1 sequence (P35918 20-1345): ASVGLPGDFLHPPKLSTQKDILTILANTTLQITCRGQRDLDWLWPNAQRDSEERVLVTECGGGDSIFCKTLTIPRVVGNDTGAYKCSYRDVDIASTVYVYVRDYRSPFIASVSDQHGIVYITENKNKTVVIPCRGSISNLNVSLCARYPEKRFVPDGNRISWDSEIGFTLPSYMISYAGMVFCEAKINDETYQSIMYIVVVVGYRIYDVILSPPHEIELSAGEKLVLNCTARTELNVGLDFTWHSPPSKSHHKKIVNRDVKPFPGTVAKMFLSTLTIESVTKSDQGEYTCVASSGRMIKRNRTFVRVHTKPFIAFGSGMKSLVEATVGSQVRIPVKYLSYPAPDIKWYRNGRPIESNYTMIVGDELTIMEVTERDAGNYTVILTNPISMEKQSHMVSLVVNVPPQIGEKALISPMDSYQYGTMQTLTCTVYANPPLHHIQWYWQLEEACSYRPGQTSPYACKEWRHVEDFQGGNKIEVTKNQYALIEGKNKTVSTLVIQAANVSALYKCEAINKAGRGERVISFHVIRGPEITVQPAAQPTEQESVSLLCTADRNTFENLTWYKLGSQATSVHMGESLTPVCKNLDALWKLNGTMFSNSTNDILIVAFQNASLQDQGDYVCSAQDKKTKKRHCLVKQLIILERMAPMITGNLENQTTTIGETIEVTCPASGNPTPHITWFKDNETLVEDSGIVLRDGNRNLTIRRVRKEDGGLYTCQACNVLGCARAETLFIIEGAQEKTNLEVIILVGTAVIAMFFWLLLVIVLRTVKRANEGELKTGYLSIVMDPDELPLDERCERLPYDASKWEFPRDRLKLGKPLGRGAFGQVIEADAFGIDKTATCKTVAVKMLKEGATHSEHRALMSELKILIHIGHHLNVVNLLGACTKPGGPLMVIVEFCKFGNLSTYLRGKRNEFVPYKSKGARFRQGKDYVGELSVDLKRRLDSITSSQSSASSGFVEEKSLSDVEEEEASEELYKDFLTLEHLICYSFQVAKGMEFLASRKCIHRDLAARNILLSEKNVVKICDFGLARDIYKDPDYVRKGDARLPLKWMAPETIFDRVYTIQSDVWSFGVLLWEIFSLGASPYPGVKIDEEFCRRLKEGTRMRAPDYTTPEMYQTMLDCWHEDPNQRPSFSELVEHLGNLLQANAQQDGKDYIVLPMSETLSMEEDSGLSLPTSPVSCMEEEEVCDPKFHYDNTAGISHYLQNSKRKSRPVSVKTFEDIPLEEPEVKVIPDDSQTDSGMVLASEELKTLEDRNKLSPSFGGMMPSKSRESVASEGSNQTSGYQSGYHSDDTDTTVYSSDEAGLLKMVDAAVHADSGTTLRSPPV

Molecule | IC50 (HUV-EC-C cells (VEGF)) | IC50 (PDGFR [1]) | IC50 (PDGFR [2]) | IC50 (FGFR) | further results
3-[(2-Sulphonylfuran-5-yl)methylene]-2-indolinone sodium salt [SU5428] | – | – | – | – | IC50 (FLK-1 receptor): 8.6 µM
CN(C)c1ccc(C=C2C(=O)Nc3ccccc32)cc1 [SU4312, 3-(4-Dimethylaminobenzylidenyl)-2-indolinone] | – | – | – | – | IC50 (3T3/E/H+TGF-a(T) cells): 36 µM
COc1ccc(OC)c(C=C2C(=O)Nc3ccccc32)c1 [SU4793, 3-(2,5-Dimethoxybenzylidenyl)-2-indolinone] | 6.6 µM | – | – | – | IC50 (HUV-EC-C cells (a-FGF)): 3.4 µM
COc1cccc(C=C2C(=O)Nc3ccccc32)c1OC [SU4794, 3-(2,3-dimethoxybenzylidenyl)-2-indolinone] | 4.8 µM | – | – | – | IC50 (HUV-EC-C cells (a-FGF)): 35.7 µM
CC(=O)Nc1ccc(C=C2C(=O)Nc3ccccc32)cc1 [SU4799, 3-(4-acetamidobenzylidenyl)-2-indolinone] | 19.9 µM | – | – | – | –
O=C1Nc2ccccc2C1=Cc1ccc(O)cc1Cl [SU4932, 3-(2-chloro-4-hydroxybenzylidenyl)-2-indolinone] | 2.5 µM | – | – | – | IC50 (HUV-EC-C cells (a-FGF)): 45.2 µM
CN(C)c1ccc(C=C2C(=O)N(C)c3ccccc32)cc1 [SU4952, 3-(4-Dimethylaminobenzylidenyl)-1-methyl-2-indolinone] | 25.6 µM | – | – | – | IC50 (HUV-EC-C cells (a-FGF)): 19.3 µM
CN1C(=O)C(=Cc2ccc(Br)cc2)c2ccccc21 [SU4956, 3-(4-Bromobenzylidenyl)-1-methyl-2-indolinone] | 8 µM | – | – | – | IC50 (HUV-EC-C cells (a-FGF)): 13 µM
CN(C)c1ccc(C=C2C(=O)Nc3ccc(Cl)cc32)cc1 [SU4967, 5-Chloro-3-(4-dimethylaminobenzylidenyl)-2-indolinone] | – | 7.9 µM | 9 µM | 4.9 µM | –
O=C1Nc2ccccc2C1=Cc1ccc(N2CCOCC2)cc1 [SU4981, 3-[4-(Morpholin-4-yl)benzylidenyl]-2-indolinone] | – | 33.1 µM | 3 µM | 10 µM | –
CN1C(=O)C(=Cc2ccc(N3CCOCC3)cc2)c2ccccc21 [SU4982, 1-Methyl-3-[4-(morpholin-4-yl)benzylidenyl]-2-indolinone] | 46.1 µM | – | – | – | IC50 (HUV-EC-C cells (a-FGF)): 27.3 µM
O=CN1CCN(c2ccc(C=C3C(=O)Nc4ccccc43)cc2)CC1 [SU4984, 3-[4-(4-Formylpiperazin-1-yl)benzylidenyl]-2-indolinone] | – | 5.8 µM | – | – | IC50 (3T3/PDGFR+PDGF(T) cells): 22.2 µM
Cc1cc[nH]c1C=C1C(=O)Nc2ccccc21 [SU5404, 3-[(3-Methylpyrrol-2-yl)methylene]-2-indolinone] | – | 17 µM | 3 µM | 25 µM | –
COC(=O)CCc1c(C)c[nH]c1C=C1C(=O)Nc2ccccc21 [SU5407, 3-{[4-(2-methoxycarbonylethyl)-3-methylpyrrol-5-yl]methylene}-2-indolinone] | – | 53.7 µM | – | – | –
CCc1c(C=C2C(=O)Nc3ccccc32)[nH]c(C)c1C [SU5453, 3-[(4,5-Dimethyl-3-ethylpyrrol-2-yl)methylene]-2-indolinone] | – | 65.5 µM | – | – | –
CCOC(=O)CCc1c(C=C2C(=O)Nc3ccccc32)[nH]c(C(=O)OCC)c1CC(=O)OCC [SU5465, 3-[(5-Ethoxycarbonyl-3-ethoxycarbonylethyl-4-ethoxylcarbonylmethylpyrrol-2-yl)methylene]-2-indolinone] | – | – | 40 µM | 25 µM | –
O=C1Nc2ccccc2C1=Cc1ccc(N2CCCC2)cc1 [SU5466, 3-[4-(Pyrrolidin-1-yl)benzylidenyl]-2-indolinone] | – | 86 µM | 18 µM | 15 µM | –
Cc1cnc(C=C2C(=O)Nc3ccccc32)[nH]1 [SU5468, 3-[(5-Methylimidazol-2-yl)methylene]-2-indolinone] | – | 55.9 µM | 8 µM | – | –
Cc1cnc(C=C2C(=O)Nc3ccccc32)s1 [SU5469, 3-[(5-Methylthiazol-2-yl)methylene]-2-indolinone] | – | – | 4 µM | 15 µM | –
O=C1Nc2ccccc2C1=Cc1c[nH]cn1 [SU5473, 3-[(Imidazol-4-yl)methylene]-2-indolinone] | – | 14.2 µM | 4 µM | 50 µM | IC50 (HUV-EC-C cells (a-FGF); Homo sapiens, HUVEC): 14.1 µM; IC50 (HUV-EC-C cells (VEGF); Homo sapiens, HUVEC): 1.2 µM
O=C1Nc2ccccc2C1=Cc1c(Br)cnn1Cc1ccc(Cl)cc1 [SU5475, 3-[(4-Bromo-1-(4-chlorobenzyl)pyrazol-5-yl)methylene]-2-indolinone] | – | – | 6.5 µM | 9 µM | –
